Test results: ChEMBL document CHEMBL1134101, “The cyclohexene ring as bioisostere of a furanose ring: synthesis and antiviral activity of cyclohexenyl nucleosides” (Bioorg Med Chem Lett, 2001)
Values after ≈ are worked out from the molar mass of the structure shown.

What was measured:
[1] = system: Human alphaherpesvirus 3; assay: Tested for antiviral activity against VZV ([…]); format: functional, organism-based
[2] = system: Cytomegalovirus; assay: Tested for antiviral activity against HCMV (AD169); format: functional, organism-based, Human betaherpesvirus 5
[3] = system: Hepatitis B virus; assay: Tested for antiviral activity against HBV (Hep AD79); format: functional, organism-based
[4] = system: Human alphaherpesvirus 3; assay: Tested for antiviral activity against VZV (YS); format: functional, organism-based
[5] = system: Human alphaherpesvirus 2; assay: Tested for antiviral activity against HSV-2 (G); format: functional, organism-based
[6] = system: Human alphaherpesvirus 1; assay: Tested for antiviral activity against HSV-1 (TK-KOS); format: functional, organism-based
[7] = system: Human alphaherpesvirus 1; assay: Tested for antiviral activity against HSV-1 (KOS); format: functional, organism-based
[8] = system: Cytomegalovirus; assay: Effective concentration required against HCMV AD169 for antiviral activity; format: functional, organism-based, Human betaherpesvirus 5
[9] = system: Cytomegalovirus; assay: Effective concentration required against HCMV strain for antiviral activity; format: functional, organism-based; settings: Human betaherpesvirus 5
[10] = Hepatitis B virus, read-out: IC50
[11] = Human alphaherpesvirus 2, read-out: IC50
[12] = Human alphaherpesvirus 1, read-out: IC50
[13] = Human betaherpesvirus 5, read-out: EC50

IC50 [1] [µg/mL] | IC50 [2] [µg/mL] | IC50 [3] [µg/mL] | IC50 [4] [µg/mL] | IC50 [5] [µg/mL] | IC50 [6] [µg/mL] | IC50 [7] [µg/mL] | EC50 [8] [µg/mL] | IC50 [3, 10] [µg/mL] | IC50 [5, 11] [µg/mL] | IC50 [7, 12] [µg/mL] | EC50 [9] [µg/mL] | IC50 [6, 12] [µg/mL] | EC50 [8, 13] [µg/mL] | IC50 ([2]; Human betaherpesvirus 5, read-out: IC50) [µg/mL] | SMILES
2.1 (≈ 7.57 µM) | 0.6 (≈ 2.16 µM) | 3 (≈ 10.8 µM) | 0.49 (≈ 1.77 µM) | 0.05 (≈ 0.18 µM) | 0.38 (≈ 1.37 µM) | 0.002 (≈ 0.00721 µM) | 0.47 (≈ 1.7 µM) |  |  |  |  |  |  |  | Nc1nc(O)c2ncn(C3C=CC(CO)C(O)C3)c2n1 (stereo in doubt; form 1)
5.8 (≈ 20.9 µM) | 1.5 (≈ 5.41 µM) |  | 1.2 (≈ 4.33 µM) |  | 1.28 (≈ 4.62 µM) |  | 1.05 (≈ 3.79 µM) | 3 (≈ 10.8 µM) | 0.07 (≈ 0.252 µM) | 0.003 (≈ 0.0108 µM) |  |  |  |  | Nc1nc(O)c2ncn(C3C=CC(CO)C(O)C3)c2n1 (stereo in doubt; form 2)
 |  |  |  |  |  |  |  | > 50 | 0.02 (≈ 0.0888 µM) | 0.01 (≈ 0.0444 µM) | 16 (≈ 71 µM) | 9.6 (≈ 42.6 µM) | 16 (≈ 71 µM) |  | Nc1nc2c(ncn2COCCO)c(=O)[nH]1 [ACYCLOVIR]
 |  |  |  |  |  |  |  | 45 (≈ 176 µM) | 0.002 (≈ 0.00784 µM) | 0.001 (≈ 0.00392 µM) |  | 0.48 (≈ 1.88 µM) | 0.77 (≈ 3.02 µM) | 0.6 (≈ 2.35 µM) | Nc1nc2c(ncn2COC(CO)CO)c(=O)[nH]1 [GANCICLOVIR]
